The source of these data is patent US8614327B2 (Vertex Pharmaceuticals Incorporated, priority 2004, dated 2013).

Where only a bound is given, the exact number is not on record here.

The assay addresses T1, ΔF508-CFTR (Homo sapiens, UniProt P13569, DEL508-508).
T1 construct: expressed in transfected cells
Description: Membrane potential optical (FRET/VIPR) assay, identification of potentiator compounds. The following applies: Table 3, assay not given; for % Activity: relative efficacy. It is filed as cell-based. In outline:
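NIH3T3 mouse fibroblasts stably expressing ΔF508-CFTR, temperature-corrected 24 h at 27° C., read on VIPR by FRET between CC2-DMPE and DiSBAC2(3). Potentiators identified in a double-addition format, first adding chloride-free (gluconate) medium with or without compound.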

T1 sequence (P13569 with tags, fused parts or gaps DEL508-508): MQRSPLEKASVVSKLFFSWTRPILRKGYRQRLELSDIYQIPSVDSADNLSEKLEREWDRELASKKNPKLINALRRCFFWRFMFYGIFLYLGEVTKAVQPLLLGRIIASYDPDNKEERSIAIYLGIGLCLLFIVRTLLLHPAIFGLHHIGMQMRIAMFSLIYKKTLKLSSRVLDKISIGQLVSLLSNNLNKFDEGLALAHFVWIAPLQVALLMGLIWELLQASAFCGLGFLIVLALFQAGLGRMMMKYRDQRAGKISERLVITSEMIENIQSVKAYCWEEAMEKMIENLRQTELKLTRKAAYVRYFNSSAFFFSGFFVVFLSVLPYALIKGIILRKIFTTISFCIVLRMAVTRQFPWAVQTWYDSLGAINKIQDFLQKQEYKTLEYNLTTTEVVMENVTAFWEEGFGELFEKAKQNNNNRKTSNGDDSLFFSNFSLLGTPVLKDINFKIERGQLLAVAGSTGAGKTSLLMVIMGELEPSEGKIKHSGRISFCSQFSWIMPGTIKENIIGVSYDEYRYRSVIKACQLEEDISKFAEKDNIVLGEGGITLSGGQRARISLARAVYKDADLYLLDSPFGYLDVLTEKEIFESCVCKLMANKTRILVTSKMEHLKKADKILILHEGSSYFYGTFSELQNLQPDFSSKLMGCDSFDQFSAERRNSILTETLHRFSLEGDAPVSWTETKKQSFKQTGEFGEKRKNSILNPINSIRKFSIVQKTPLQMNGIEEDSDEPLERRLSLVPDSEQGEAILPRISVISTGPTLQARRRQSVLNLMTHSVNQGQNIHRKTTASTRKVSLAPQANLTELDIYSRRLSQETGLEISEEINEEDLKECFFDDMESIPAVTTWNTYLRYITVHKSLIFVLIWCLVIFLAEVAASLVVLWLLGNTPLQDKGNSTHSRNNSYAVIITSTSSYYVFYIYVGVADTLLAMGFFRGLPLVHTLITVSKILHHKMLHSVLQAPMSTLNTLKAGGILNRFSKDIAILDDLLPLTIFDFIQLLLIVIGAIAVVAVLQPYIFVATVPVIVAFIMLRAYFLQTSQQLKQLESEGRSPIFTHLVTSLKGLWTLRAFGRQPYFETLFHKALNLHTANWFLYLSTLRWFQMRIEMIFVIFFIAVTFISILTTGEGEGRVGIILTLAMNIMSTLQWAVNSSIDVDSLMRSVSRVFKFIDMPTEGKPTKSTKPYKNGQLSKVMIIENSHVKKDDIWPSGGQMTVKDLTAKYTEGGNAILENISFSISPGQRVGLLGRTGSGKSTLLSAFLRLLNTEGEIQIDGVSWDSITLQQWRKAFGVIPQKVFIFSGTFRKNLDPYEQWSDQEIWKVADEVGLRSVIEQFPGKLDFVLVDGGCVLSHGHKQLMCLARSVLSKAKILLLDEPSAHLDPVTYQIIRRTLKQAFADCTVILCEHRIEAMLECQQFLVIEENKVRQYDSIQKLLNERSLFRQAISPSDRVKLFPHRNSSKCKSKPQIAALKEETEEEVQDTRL

As a reminder, the EC50 is the concentration giving half of the maximal effect. With `CC(C)(C)c1ccc(NC(=O)c2c[nH]c3ccccc3c2=O)c(C(C)(C)C)c1O` [Compound 594, N-(3-hydroxy-2,4-ditert-butyl-phenyl)-4-oxo-1H-quinoline-3-carboxamide], the EC50 is less than 10 µM and the “% Activity” value is “+++ (>100%)”.
For the compound `O=C(Nc1cc(Cl)cc(NS(=O)(=O)CCN2CCCCC2)c1)c1c[nH]c2ccccc2c1=O` [Compound 133, N-[3-chloro-5-[2-(1-piperidyl)ethylsulfonylamino]phenyl]-4-oxo-1H-quinoline-3-carboxamide], the EC50 was 10 to 25 µM and the “% Activity” value is on record as “++ (between 25% to 100%)”.
The like results for `CCOC(=O)c1cc2cc[nH]c2cc1NC(=O)c1c[nH]c2ccccc2c1=O` [Compound 188, 6-[(4-oxo-1H-quinolin-3-yl)carbonylamino]-1H-indole-5-carboxylic acid ethyl ester] were, in that order, less than 10 µM and “++ (between 25% to 100%)”.
The corresponding values for `CC(C)c1cccc(C(C)C)c1NC(=O)c1c[nH]c2ccccc2c1=O` [Compound 466, N-(2,6-diisopropylphenyl)-4-oxo-1H-quinoline-3-carboxamide] are less than 10 µM and “++ (between 25% to 100%)”.
For `O=C(Nc1cc2ccccc2cn1)c1c[nH]c2ccccc2c1=O` [Compound 309, N-(3-isoquinolyl)-4-oxo-1H-quinoline-3-carboxamide], the EC50 was 25 to 60 µM and the “% Activity” value was “+ (<25%)”.
The like results for `COc1cc2[nH]cc(C(=O)Nc3cc(O)c(C(C)(C)C)cc3C(C)(C)C)c(=O)c2cc1F` [Compound 617, 6-fluoro-N-(5-hydroxy-2,4-ditert-butyl-phenyl)-7-methoxy-4-oxo-1H-quinoline-3-carboxamide] were, in that order, less than 10 µM and “+++ (>100%)”.
With `O=C(Nc1cc(O)c(C23CC4CC(CC(C4)C2)C3)cc1F)c1cnc2ccccc2c1O` [Compound 395, N-[4-(1-adamantyl)-2-fluoro-5-hydroxy-phenyl]-4-hydroxy-quinoline-3-carboxamide], the EC50 was less than 10 µM and the “% Activity” value is “++ (between 25% to 100%)”.
In the case of `O=C(Nc1ccc(Cl)nc1)c1c[nH]c2ccccc2c1=O` [Compound 392, N-(6-chloro-3-pyridyl)-4-oxo-1H-quinoline-3-carboxamide], the EC50 is 25 to 60 µM and the “% Activity” value is on record as “+ (<25%)”.
The like results for `CC(C)(C)C(=O)Nc1ccc(NC(=O)c2c[nH]c3ccccc3c2=O)c(C(F)(F)F)c1` [Compound 556, N-[4-(2,2-dimethylpropanoylamino)-2-(trifluoromethyl)phenyl]-4-oxo-1H-quinoline-3-carboxamide] were, in that order, less than 10 µM and “++ (between 25% to 100%)”.
On to `Cc1ccc2[nH]cc(C(=O)Nc3ccc(N4CCCC4C)cc3C(F)(F)F)c(=O)c2c1` (stereo not drawn) [Compound 503, 6-methyl-N-[4-(2-methylpyrrolidin-1-yl)-2-(trifluoromethyl)phenyl]-4-oxo-1H-quinoline-3-carboxamide], for which the concentration for a half-maximal effect (EC50) was less than 10 µM and the “% Activity” value is “++ (between 25% to 100%)”.
The corresponding values for `CC(C)c1ccc(NC(=O)c2c[nH]c3ccc(F)cc3c2=O)c(C(F)(F)F)c1` [Compound 557, 6-fluoro-N-[4-isopropyl-2-(trifluoromethyl)phenyl]-4-oxo-1H-quinoline-3-carboxamide] are less than 10 µM and “++ (between 25% to 100%)”.
As to `O=C(Nc1ccc2oc(-c3ccccc3)nc2c1)c1c[nH]c2ccccc2c1=O` [Compound 376, 4-oxo-N-(2-phenylbenzooxazol-5-yl)-1H-quinoline-3-carboxamide], the EC50 was in the range of 25 to 60 µM and the “% Activity” value is “+ (<25%)”.
The like results for `CC(=O)Nc1cc(NC(=O)c2c[nH]c3ccccc3c2=O)cc(C(F)(F)F)c1` [Compound 379, N-[3-acetylamino-5-(trifluoromethyl)phenyl]-4-oxo-1H-quinoline-3-carboxamide] were, in that order, 10 to 25 µM and “++ (between 25% to 100%)”.
For the compound `CC(C)(C)c1cc2cc[nH]c2cc1NC(=O)c1c[nH]c2ccc(S(=O)(=O)N3CCCC3)cc2c1=O` [Compound 274, 4-oxo-6-pyrrolidin-1-ylsulfonyl-N-(5-tert-butyl-1H-indol-6-yl)-1H-quinoline-3-carboxamide], the concentration giving a half-maximal response (EC50) was less than 10 µM and the “% Activity” value is reported as “++ (between 25% to 100%)”.
In the case of `Cc1cc(OC(F)(F)F)ccc1NC(=O)c1c[nH]c2ccccc2c1=O` [Compound 538, N-[2-methyl-4-(trifluoromethoxy)phenyl]-4-oxo-1H-quinoline-3-carboxamide], the EC50 is less than 10 µM and the “% Activity” value is given as “++ (between 25% to 100%)”.
The like results for `CCOc1ccccc1NC(=O)c1c[nH]c2ccccc2c1=O` [Compound 380, N-(2-ethoxyphenyl)-4-oxo-1H-quinoline-3-carboxamide] were, in that order, less than 10 µM and “++ (between 25% to 100%)”.
The corresponding values for `O=C(Nc1ccccc1N1CCN(C(=O)c2ccccc2)CC1)c1c[nH]c2ccccc2c1=O` [Compound 321, N-[2-(4-benzoylpiperazin-1-yl)phenyl]-4-oxo-1H-quinoline-3-carboxamide] are less than 10 µM and “++ (between 25% to 100%)”.
The like results for `O=C(Nc1ccc(OC(F)(F)F)c(N2CCCC2)c1)c1c[nH]c2ccccc2c1=O` [Compound 579, 4-oxo-N-[3-pyrrolidin-1-yl-4-(trifluoromethoxy)phenyl]-1H-quinoline-3-carboxamide] were, in that order, less than 10 µM and “++ (between 25% to 100%)”.
In the case of `CC(C)(C)c1cc(F)c(NC(=O)c2c[nH]c3cc(C#N)ccc3c2=O)cc1O` [Compound 677, 7-cyano-N-(2-fluoro-5-hydroxy-4-tert-butyl-phenyl)-4-oxo-1H-quinoline-3-carboxamide], the EC50 was less than 10 µM and the “% Activity” value is given as “++ (between 25% to 100%)”.
The corresponding values for `NS(=O)(=O)c1cccc(NC(=O)c2c[nH]c3ccccc3c2=O)c1` [Compound 9, 4-oxo-N-(3-sulfamoylphenyl)-1H-quinoline-3-carboxamide] are 25 to 60 µM and “+ (<25%)”.
The like results for `CC(C)c1ccc(N)cc1NC(=O)c1c[nH]c2ccccc2c1=O` [Compound 101, N-(5-amino-2-isopropyl-phenyl)-4-oxo-1H-quinoline-3-carboxamide] were, in that order, less than 10 µM and “++ (between 25% to 100%)”.
For `COC(=O)Nc1cc(NC(=O)c2c[nH]c3ccccc3c2=O)ccc1C(C)(C)C` [Compound 14, [5-[(4-oxo-1H-quinolin-3-yl)carbonylamino]-2-tert-butyl-phenyl]aminoformic acid methyl ester], the EC50 is less than 10 µM and the “% Activity” value is “++ (between 25% to 100%)”.
With `CC(C)(C)c1cc2cc[nH]c2cc1NC(=O)c1c[nH]c2ccccc2c1=O` [Compound 381, 4-oxo-N-(5-tert-butyl-1H-indol-6-yl)-1H-quinoline-3-carboxamide], the EC50 was less than 10 µM and the “% Activity” value is given as “++ (between 25% to 100%)”.
`O=C(Nc1ccc2ccccc2n1)c1c[nH]c2ccccc2c1=O` [Compound 19, 4-oxo-N-(2-quinolyl)-1H-quinoline-3-carboxamide]: the EC50 was 10 to 25 µM and the “% Activity” value is reported as “+ (<25%)”.
For `O=C(Nc1cccc(Cl)c1)c1c[nH]c2ccccc2c1=O` [Compound 370, N-(3-chlorophenyl)-4-oxo-1H-quinoline-3-carboxamide], the EC50 was less than 10 µM and the “% Activity” value is “++ (between 25% to 100%)”.
The like results for `CCOc1ccc(NC(C)=O)cc1NC(=O)c1c[nH]c2ccccc2c1=O` [Compound 132, N-(5-acetylamino-2-ethoxy-phenyl)-4-oxo-1H-quinoline-3-carboxamide] were, in that order, 25 to 60 µM and “+ (<25%)”.
The like results for `CCCCc1ccccc1NC(=O)c1c[nH]c2ccccc2c1=O` [Compound 336, N-(2-butylphenyl)-4-oxo-1H-quinoline-3-carboxamide] were, in that order, less than 10 µM and “++ (between 25% to 100%)”.
The like results for `O=C(Nc1cccc2[nH]ccc12)c1c[nH]c2ccccc2c1=O` [Compound 100, N-(1H-indol-4-yl)-4-oxo-1H-quinoline-3-carboxamide] were, in that order, 25 to 60 µM and “+ (<25%)”.
Turning to `O=C(Nc1ccccc1OCc1ccccc1)c1c[nH]c2ccccc2c1=O` [Compound 240, N-(2-benzyloxyphenyl)-4-oxo-1H-quinoline-3-carboxamide], the EC50 was less than 10 µM and the “% Activity” value was “++ (between 25% to 100%)”.
The like results for `COc1ccc(Oc2ccc(C(F)(F)F)cc2NC(=O)c2c[nH]c3ccccc3c2=O)cc1` [Compound 205, N-[2-(4-methoxyphenoxy)-5-(trifluoromethyl)phenyl]-4-oxo-1H-quinoline-3-carboxamide] were, in that order, less than 10 µM and “++ (between 25% to 100%)”.
The like results for `Cc1ccc2[nH]cc(C(=O)Nc3cc(O)c(C(C)(C)C)cc3C(C)(C)C)c(=O)c2c1` [Compound 688, N-(5-hydroxy-2,4-ditert-butyl-phenyl)-6-methyl-4-oxo-1H-quinoline-3-carboxamide] were, in that order, less than 10 µM and “++ (between 25% to 100%)”.
The corresponding values for `COc1cc(NC(=O)c2c[nH]c3ccccc3c2=O)cc2ccccc12` [Compound 717, N-(4-methoxy-2-naphthyl)-4-oxo-1H-quinoline-3-carboxamide] are less than 10 µM and “++ (between 25% to 100%)”.
In the case of `O=C(Nc1ccc(C(F)(F)F)cc1)c1c[nH]c2ccccc2c1=O` [Compound 236, 4-oxo-N-[4-(trifluoromethyl)phenyl]-1H-quinoline-3-carboxamide], the EC50 is less than 10 µM and the “% Activity” value was “++ (between 25% to 100%)”.
